How the values were obtained:
[1] = system: TGF-β-treated human skin fibroblast; assay: α-SMA and pro-COL1A1 protein ELISA in TGF-β-treated skin fibroblasts (Protocol 1); format: cell-based; conditions: TGF-β 1 ng/mL, 24 h; for pro-COL1A1 protein expression / α-SMA protein expression: 1-300 nM, 0.5 h pre-treatment, ELISA
Protocol: Primary human skin fibroblasts (NHDF-Ad) were obtained from Lonza (Basel, Switzerland). Cells were cultured and maintained in growth medium: Fibroblast Basal Medium (FBM) containing human fibroblast growth factor-B, insulin, fetal bovine serum (FBS) and gentamicin/amphotericin-B (Lonza). Cells were maintained in a humidified incubator at 37°C with 5% CO2 and used for experiments between passages 5 to 8.
Protocol 1: Cells were allowed to adhere overnight before being replaced with serum-free FBM for 24 h. Serum-starved cells were first pretreated with samples in DMSO at concentrations between 1 and 300 nM for 30 min and then stimulated with 1 ng/mL recombinant human TGF-β (R&D Systems, Minneapolis, MN, USA) for 24 h.
Cell lysates were prepared with cell lysis buffer (Cell Signaling Technology, Beverly, MA, USA) and subjected to α-SMA ELISA system (Abnova, Taipei, Taiwan) and Pro-type I Collagen α1 (pro-COL1A1) SimpleStep ELISA Kit (Abcam, Cambridge, UK, USA) according to the manufacturer's protocol.

[2] = system: TGF-β-induced fibrotic genes expression in mouse ear skin; assay: TGF-β-induced fibrotic gene expression in mouse ear, topical application; format: in vivo; conditions: for expression of fibrosis-related genes (Col1a1, Col1a2, α-Sma) in mouse ear: topical cream daily, 1 h before TGF-β 500 ng intradermal x5, T-3833261 0.01-0.1%, HF 0.01%
Protocol: Standard chow diet and water were available ad libitum.
A vehicle without compounds was applied to control mice. […] Topical application of compound was continued for 7 days.
(§1) Total RNA was isolated from in vivo samples using ISOGEN II (Nippongene) according to the manufacturer's instructions. In vitro RNA samples were prepared as mentioned above. High Capacity cDNA Reverse Transcription Kit (Life Technologies, Carlsbad, CA, USA) was used for cDNA synthesis. Real-time quantitative RT-PCR reactions were performed as a TaqMan method on a ViiA 7 real-Time PCR System (Life Technologies), using TaqMan Fast Advanced Master Mix (Lifer Technologies) with specific primers on TaqMan Gene Expression Assays (Life Technologies) according to the manufacturer's manual. FAM-probed primers were used: COL1A1, Hs00164004_m1; α-SMA/ACTA2, Hs00426835_g1; fibroblast growth factor 2 (FGF2), Hs00266645_m1; Smad specific E3 ubiquitin protein ligase 2 (SMURF2), Hs00224203_m1; DDIT3, Hs00358796_g1; and glyceraldehyde 3-phosphate dehydrogenase (GAPDH), 4326317E for human in vitro cell assay. FAM-probed and TAMRA-quenched primers (Sigma-Aldrich Japan, Tokyo, Japan) were used: Col1a1, NM_007742; type I collagen alpha 2 (Col1a2), NM_007743; α-Sma/Acta2, NM_007392; and Gapdh, NM_008084 for mouse in vivo assay (S1 Table). The relative mRNA level of the target genes was calculated by the comparative threshold cycle (Ct) method using GAPDH (Gapdh) as an internal control for normalization. The fold change in the expression of each target gene was calculated by the following formula: relative quantification (RQ) = 2^-ΔΔCt.

[3] = system: differentiated human skin myofibroblast; assay: reverse fibrosis: α-SMA protein in TGF-β-induced differentiated skin myofibroblasts (Protocol 2); format: cell-based; conditions: TGF-β 1 ng/mL 48 h, then compound 48 h without TGF-β
Protocol: Protocol 2: Cells were allowed to adhere overnight before being replaced with serum-free FBM for 24 h. Cells were then treated with TGF-β (1 ng/mL) for 48 h to induce differentiation to myofibroblast with expressing α-SMA protein. The medium was then removed, and the cells were subsequently treated with or without samples (1–300 nM) in serum-free FBM for an additional 48 h. Cell lysates were prepared with cell lysis buffer (Cell Signaling Technology, Beverly, MA, USA) and subjected to α-SMA ELISA system (Abnova, Taipei, Taiwan) and Pro-type I Collagen α1 (pro-COL1A1) SimpleStep ELISA Kit (Abcam, Cambridge, UK, USA) according to the manufacturer's protocol.

[4] = body weight and tolerability on topical application in mice; conditions: mouse; for tolerability: dermal topical application; for Body weight day 0 / Body weight day 7: topical, mean ± SE (n = 4-8)
Protocol: The experimenters were blinded to the treatments given to the animals and to the biochemical and histological analyses and the data analyses. Eight-week-old C3H/He male mice (weighing 23~28 g, Japan SLC, Inc., Hamamatsu, Japan) were used for all the in vivo experiments. […] These animals were maintained on a 12/12 h light/dark cycle with constant temperature (23 ± 2°C) under specific pathogen-free conditions. Standard chow diet and water were available ad libitum.
After acclimatization for 1 weeks, animals were randomly divided according to body weight and treated for 3 to 5 consecutive days as follows. The ear and dorsal skin of mouse were intradermally injected with 20 μL (100 μL, dorsal skin) PBS or 500 ng TGF-β in PBS under anaesthesia with 3–4% sevoflurane. Injections were continued in this manner daily for 3 days (days 0, 1 and 2) or 5 days (days 0, 1, 2, 3 and 4). Treatment protocol included the daily topical application of T-3833261 or HF cream on the ear (40 μL/ear) 1 h before injections into the ear. A vehicle without compounds was applied to control mice. The topical material contained sorbitan sesquioleate (50 g), lanolin (50 g), liquid paraffin (250 g), propylene glycol (50 g), 90% lactic acid (1.5 g), T-3833261 (0.1, 0.3 and 1 g) or HF (0.1 g), and distilled water as the rest material. Topical application of compound was continued for 7 days. Mice were euthanized by cervical dislocation under sevoflurane anesthesia at 3 or 5 days after last TGF-β injection and the ear surrounding the TGF-β injection site was harvested with 8 μm biopsy punch under anesthesia.

skin fibroblasts = assay: Proline addition assay (α-SMA mRNA); format: cell-based, human; conditions: proline 0.05, 0.2 and 1 mM; compound 1-300 nM; 24 h
Protocol: Total RNA was isolated from in vivo samples using ISOGEN II (Nippongene) according to the manufacturer's instructions. In vitro RNA samples were prepared as mentioned above. High Capacity cDNA Reverse Transcription Kit (Life Technologies, Carlsbad, CA, USA) was used for cDNA synthesis. Real-time quantitative RT-PCR reactions were performed as a TaqMan method on a ViiA 7 real-Time PCR System (Life Technologies), using TaqMan Fast Advanced Master Mix (Lifer Technologies) with specific primers on TaqMan Gene Expression Assays (Life Technologies) according to the manufacturer's manual. […] The relative mRNA level of the target genes was calculated by the comparative threshold cycle (Ct) method using GAPDH (Gapdh) as an internal control for normalization. The fold change in the expression of each target gene was calculated by the following formula: relative quantification (RQ) = 2^-ΔΔCt.
To evaluate the effect of proline addition on anti-fibrosis by each compound, the cells were allowed to adhere overnight before being replaced with serum-free FBM for 24 h. […] Then real-time quantitative RT-PCR analysis was conducted as mentioned above.

[5] = system: primary human skin fibroblast; assay: mRNA expression of fibrosis-related genes by real-time quantitative RT-PCR; format: cell-based; conditions: 1-300 nM, TGF-β 1 ng/mL, 24 h
Protocol: Cells were allowed to adhere overnight before being replaced with serum-free FBM for 24 h. Serum-starved cells were first pretreated with samples in DMSO at concentrations between 1 and 300 nM for 30 min and then stimulated with 1 ng/mL TGF-β for 24 h. Then total RNA was collected from the cells by RNeasy 96 Kit (Qiagen, Valencia, CA, USA) and DNaseI (Qiagen) according to the manufacturer's protocol.
as §1

[6] = system: Smad3 and phosphorylated Smad3 in human skin fibroblasts; assay: Smad3 activation in western blotting; format: cell-based; conditions: 24 h treatment, then TGF-β 1 ng/mL 30 min; tested at 30 and 300 nM; western blot
Protocol: Cells were allowed to adhere overnight before being replaced with serum-free FBM for 24 h. Serum-starved cells were first pretreated with samples in DMSO at 30 and 300 nM for 24 h and then stimulated with 1 ng/mL TGF-β for 30 min. Cell lysates were prepared with lysis buffer and cellular proteins (11 μg/well) were separated by sodium dodecyl sulfate-polyacrylamide gel electrophoresis (4–20% Criterion TGX Precast Gel; Bio-Rad, Ontario, CA, USA). Protein bands were then transferred to polyvinylidene fluoride membranes (Trans-Blot Turbo Midi, Bio-Rad). Following blocking, the membranes were incubated with primary antibodies targeted against phospho-Smad3 (Cell Signaling Technology), Smad3 (Cell Signaling Technology) and β-actin (Cell Signaling Technology) followed by horseradish peroxidase-conjugated secondary antibody (Cell Signaling Technology). ECL Prime Western Blotting Detection Reagent (GE Healthcare Bio-Sciences, Little Chalfont, England) and LAS-3000 image analyzer (Fuji-film, Tokyo, Japan) were used for detection. Western blot band intensities were calculated by densitometric analyses with National Institutes of Health image software, Image J. Representative pictures are shown with quantified densitometric data.

| Compound | pro-COL1A1 protein expression [1] | α-SMA protein expression [1] | concentration reducing α-SMA and pro-COL1A1 proteins below the basal level of non-stimulated cells [1] [nM] | expression of fibrosis-related genes (Col1a1, Col1a2, α-Sma) in mouse ear [2] | concentration promoting the reduction of α-SMA protein in differentiated myofibroblasts [3] [nM] | concentration reducing α-SMA levels to that of non-stimulated controls [3] [nM] | tolerability [4] | effect of proline addition on inhibition of α-SMA gene expression (skin fibroblasts) | COL1A1 mRNA expression [5] | DDIT3 mRNA expression [5] | FGF2 mRNA expression [5] | SMURF2 mRNA expression [5] | α-SMA mRNA expression [5] | concentration showing a decrease in TGF-β-induced accumulation of Smad3 [6] [nM] | concentration showing a decrease in phosphorylated Smad3 (p-Smad3) [6] [nM] | also measured |
| --- | --- | --- | --- | --- | --- | --- | --- | --- | --- | --- | --- | --- | --- | --- | --- | --- |
| O=C(CC1NCCCC1O)Cn1cnc2cc(Br)c(Cl)cc2c1=O (centres unmarked) [HF, Halofuginone, reference compound] | suppressed pro-COL1A1 protein expression in a dose-dependent manner | suppressed α-SMA protein expression in a dose-dependent manner | ≥ 100 | prevented the skin fibrotic genes expression induced by TGF-β | 100 | 300 | well-tolerated | attenuated by adding proline to the medium | reduced to near the level of non-stimulated control | dose-dependently increased DDIT3 expression | dose-dependently increased SMURF2 and FGF2 expressions | dose-dependently increased SMURF2 and FGF2 expressions | suppressed TGF-β-induced expression of α-SMA | 300 | 300 |  |
| Cn1cc(-c2cc(F)cc(CNC(=O)c3nccc4nc(C5CCCC5)[nH]c34)c2)cn1 [T-3833261, 2-Cyclopentyl-N-(3-fluoro-5-(1-methyl-1H-pyrazol-4-yl)benzyl)-3H-imidazo[4,5-c]pyridine-4-carboxamide] | suppressed pro-COL1A1 protein expression in a dose-dependent manner | suppressed α-SMA protein expression in a dose-dependent manner | ≥ 100 | reduced expression of these fibrotic genes in a dose-dependent manner | 100 | 300 | well-tolerated | proline addition did not affect the activity | suppressed expression of these fibrotic genes | dose-dependently increased DDIT3 expression | dose-dependently increased SMURF2 and FGF2 expressions | dose-dependently increased SMURF2 and FGF2 expressions | suppressed expression of these fibrotic genes | 30 | 300 | activity on fibrotic gene expression relative to HF formulation ([2]; 0.1% formulation of T-3833261, topical, mouse ear): comparable activity to a 0.01% HF formulation; Body weight day 0 ([4]; 0.01% cream): 22.9 ± 0.8 g; Body weight day 7 ([4]; 0.01% cream): 23.8 ± 0.5 g; Body weight day 0 ([4]; 0.03% cream): 23.1 ± 0.6 g; Body weight day 7 ([4]; 0.03% cream): 23.4 ± 0.4 g; Body weight day 0 ([4]; 0.1% cream): 22.4 ± 0.4 g; Body weight day 7 ([4]; 0.1% cream): 22.2 ± 0.5 g; body weight of the mice after one week of continuous topical application ([4]; topical cream): did not change |

Source: publication PMC5655428, “Discovery and pharmacological characterization of a new class of prolyl-tRNA synthetase inhibitor for anti-fibrosis therapy” (PLoS ONE, 2017)
